Key:
[1] = molecular target: D(1B) dopamine receptor (Homo sapiens) (UniProt P21918); conditions: Compound concentration 10.0 uM
[2] = molecular target: CDK12/Cyclin K (Homo sapiens) (UniProt O75909+Q9NYV4); assay: CDK12/cyclinK(h) Millipore kinase panel; assay type: protein-complex assay; conditions: Compound concentration 1.0 uM
[3] = molecular target: Testis-specific serine/threonine-protein kinase 4 (Homo sapiens) (UniProt Q6SA08); assay: TSSK4(h) Millipore kinase panel; conditions: Compound concentration 1.0 uM
[4] = molecular target: Mast/stem cell growth factor receptor Kit (Homo sapiens) (UniProt P10721); assay: cKit(h) Millipore kinase panel; conditions: Compound concentration 1.0 uM
Sequence of Mast/stem cell growth factor receptor Kit (Homo sapiens) (P10721 whole entry): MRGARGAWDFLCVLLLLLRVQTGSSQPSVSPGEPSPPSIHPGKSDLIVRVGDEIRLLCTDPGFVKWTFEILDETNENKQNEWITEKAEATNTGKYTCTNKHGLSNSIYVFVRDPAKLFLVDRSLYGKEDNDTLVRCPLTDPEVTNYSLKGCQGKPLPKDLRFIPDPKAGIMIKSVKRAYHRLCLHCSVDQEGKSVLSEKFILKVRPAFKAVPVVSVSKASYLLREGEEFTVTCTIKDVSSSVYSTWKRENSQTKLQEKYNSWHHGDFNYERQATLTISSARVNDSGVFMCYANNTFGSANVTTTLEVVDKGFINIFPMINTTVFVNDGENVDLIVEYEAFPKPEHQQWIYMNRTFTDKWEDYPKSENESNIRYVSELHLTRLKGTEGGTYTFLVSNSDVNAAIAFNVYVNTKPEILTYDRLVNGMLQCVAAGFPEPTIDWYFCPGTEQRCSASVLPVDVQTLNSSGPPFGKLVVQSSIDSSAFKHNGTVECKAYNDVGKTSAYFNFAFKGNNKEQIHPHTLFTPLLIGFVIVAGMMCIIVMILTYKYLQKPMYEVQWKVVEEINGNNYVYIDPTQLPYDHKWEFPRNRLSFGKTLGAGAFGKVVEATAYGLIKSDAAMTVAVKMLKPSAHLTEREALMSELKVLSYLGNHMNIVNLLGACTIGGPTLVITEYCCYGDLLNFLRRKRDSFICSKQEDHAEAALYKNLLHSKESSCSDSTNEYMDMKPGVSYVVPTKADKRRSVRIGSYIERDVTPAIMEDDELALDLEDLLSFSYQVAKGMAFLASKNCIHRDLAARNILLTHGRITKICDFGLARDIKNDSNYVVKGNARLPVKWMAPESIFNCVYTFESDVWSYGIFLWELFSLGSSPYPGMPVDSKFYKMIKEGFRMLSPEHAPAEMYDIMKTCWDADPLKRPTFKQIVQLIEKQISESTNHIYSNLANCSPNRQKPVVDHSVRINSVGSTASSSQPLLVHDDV

[5] = molecular target: Dual specificity tyrosine-phosphorylation-regulated kinase 3 (Homo sapiens) (UniProt O43781); assay: DYRK3(h) Millipore kinase panel; conditions: Compound concentration 1.0 uM
Sequence of Dual specificity tyrosine-phosphorylation-regulated kinase 3 (Homo sapiens) (O43781 whole entry): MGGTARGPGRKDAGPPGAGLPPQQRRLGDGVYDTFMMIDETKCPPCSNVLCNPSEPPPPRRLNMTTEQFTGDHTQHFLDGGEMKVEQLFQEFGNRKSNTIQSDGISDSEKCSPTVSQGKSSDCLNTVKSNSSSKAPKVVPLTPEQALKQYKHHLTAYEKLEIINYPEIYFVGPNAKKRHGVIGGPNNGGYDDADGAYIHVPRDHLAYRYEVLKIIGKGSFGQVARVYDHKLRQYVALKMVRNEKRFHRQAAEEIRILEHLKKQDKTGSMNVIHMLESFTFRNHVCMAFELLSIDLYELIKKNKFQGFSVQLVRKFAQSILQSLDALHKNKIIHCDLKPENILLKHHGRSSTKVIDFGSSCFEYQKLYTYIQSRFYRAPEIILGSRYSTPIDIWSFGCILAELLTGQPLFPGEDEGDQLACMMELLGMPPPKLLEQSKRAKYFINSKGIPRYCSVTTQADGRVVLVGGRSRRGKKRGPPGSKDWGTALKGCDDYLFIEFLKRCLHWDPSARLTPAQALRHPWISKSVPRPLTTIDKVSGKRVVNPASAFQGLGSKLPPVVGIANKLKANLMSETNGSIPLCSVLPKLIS

[6] = molecular target: Adenosine receptor A1 (Homo sapiens) (UniProt P30542); conditions: Compound concentration 10.0 uM
[7] = molecular target: Rhodopsin kinase GRK7 (Homo sapiens) (UniProt Q8WTQ7); assay: GRK7(h) Millipore kinase panel; conditions: Compound concentration 1.0 uM
[8] = molecular target: Misshapen-like kinase 1 (Homo sapiens) (UniProt Q8N4C8); assay: MINK(h) Millipore kinase panel; conditions: Compound concentration 1.0 uM
[9] = molecular target: STE20-like serine/threonine-protein kinase (Homo sapiens) (UniProt Q9H2G2); assay: SLK(h) Millipore kinase panel; conditions: Compound concentration 1.0 uM
Sequence of STE20-like serine/threonine-protein kinase (Homo sapiens) (Q9H2G2 whole entry, looked up): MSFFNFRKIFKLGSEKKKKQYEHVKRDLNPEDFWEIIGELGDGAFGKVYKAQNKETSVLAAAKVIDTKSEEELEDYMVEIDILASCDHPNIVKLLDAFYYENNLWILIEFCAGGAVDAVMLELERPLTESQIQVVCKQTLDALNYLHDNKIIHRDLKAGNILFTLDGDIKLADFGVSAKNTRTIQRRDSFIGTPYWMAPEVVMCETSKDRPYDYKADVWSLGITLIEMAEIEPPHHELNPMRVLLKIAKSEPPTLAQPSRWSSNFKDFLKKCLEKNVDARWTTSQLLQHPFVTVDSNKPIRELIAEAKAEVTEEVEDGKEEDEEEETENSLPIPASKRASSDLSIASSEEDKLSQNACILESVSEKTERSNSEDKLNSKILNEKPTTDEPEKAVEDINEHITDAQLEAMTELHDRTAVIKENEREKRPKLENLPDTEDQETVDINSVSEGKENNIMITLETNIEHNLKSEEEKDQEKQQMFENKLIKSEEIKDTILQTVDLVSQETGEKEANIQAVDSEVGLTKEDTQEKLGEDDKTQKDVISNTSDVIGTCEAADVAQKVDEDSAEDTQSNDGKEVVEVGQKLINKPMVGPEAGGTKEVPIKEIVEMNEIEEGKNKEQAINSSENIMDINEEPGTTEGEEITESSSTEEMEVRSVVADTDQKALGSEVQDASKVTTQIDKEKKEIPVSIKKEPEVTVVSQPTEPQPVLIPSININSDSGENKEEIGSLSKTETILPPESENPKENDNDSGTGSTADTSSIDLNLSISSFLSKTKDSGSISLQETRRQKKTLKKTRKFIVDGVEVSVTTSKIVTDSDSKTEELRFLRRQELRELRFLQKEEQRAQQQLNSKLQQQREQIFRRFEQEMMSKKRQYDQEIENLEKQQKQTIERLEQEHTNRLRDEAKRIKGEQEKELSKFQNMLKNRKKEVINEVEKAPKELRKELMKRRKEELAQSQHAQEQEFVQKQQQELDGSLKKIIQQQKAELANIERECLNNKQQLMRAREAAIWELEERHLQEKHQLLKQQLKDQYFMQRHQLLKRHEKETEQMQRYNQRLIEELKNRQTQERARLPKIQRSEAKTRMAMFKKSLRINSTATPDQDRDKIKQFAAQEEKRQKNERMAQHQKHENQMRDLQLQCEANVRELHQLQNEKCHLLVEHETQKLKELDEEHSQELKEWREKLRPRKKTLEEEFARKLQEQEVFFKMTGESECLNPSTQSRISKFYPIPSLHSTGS

[10] = molecular target: Serine/threonine-protein kinase BRSK1 (Homo sapiens) (UniProt Q8TDC3); assay: BrSK1(h) Millipore kinase panel; conditions: Compound concentration 1.0 uM
[11] = molecular target: Aurora kinase C (Homo sapiens) (UniProt Q9UQB9); assay: Aurora_C(h) Millipore kinase panel; conditions: Compound concentration 1.0 uM
[12] = molecular target: Calcium/calmodulin-dependent protein kinase type 1D (Homo sapiens) (UniProt Q8IU85); assay: CaMKIdelta(h) Millipore kinase panel; conditions: Compound concentration 1.0 uM
[13] = molecular target: Vascular endothelial growth factor receptor 2 (Homo sapiens) (UniProt P35968); assay: KDR(h) Millipore kinase panel; conditions: Compound concentration 1.0 uM
[14] = molecular target: T1, 5-hydroxytryptamine receptor 1A (Homo sapiens) (UniProt P08908); conditions: Compound concentration 10.0 uM
T1 sequence (whole entry): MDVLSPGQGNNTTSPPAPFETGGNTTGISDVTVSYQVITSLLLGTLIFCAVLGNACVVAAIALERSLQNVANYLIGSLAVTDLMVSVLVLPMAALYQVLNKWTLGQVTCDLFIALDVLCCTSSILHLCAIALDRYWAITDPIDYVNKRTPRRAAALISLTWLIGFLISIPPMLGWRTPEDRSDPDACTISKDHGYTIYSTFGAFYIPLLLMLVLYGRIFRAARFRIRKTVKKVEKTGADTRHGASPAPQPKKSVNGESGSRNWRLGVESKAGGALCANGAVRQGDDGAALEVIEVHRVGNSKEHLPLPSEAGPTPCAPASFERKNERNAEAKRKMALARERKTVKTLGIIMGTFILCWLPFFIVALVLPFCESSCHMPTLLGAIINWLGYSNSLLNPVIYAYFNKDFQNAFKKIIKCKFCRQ

[15] = molecular target: Eukaryotic elongation factor 2 kinase (Homo sapiens) (UniProt O00418); assay: eEF-2K(h) Millipore kinase panel; conditions: Compound concentration 1.0 uM
[16] = molecular target: D(2) dopamine receptor (Homo sapiens) (UniProt P14416); conditions: Compound concentration 10.0 uM
[17] = molecular target: Serine/threonine-protein kinase PLK2 (Homo sapiens) (UniProt Q9NYY3); assay: Snk(h) Millipore kinase panel; conditions: Compound concentration 1.0 uM
[18] = molecular target: Purinergic P2Y (Rattus norvegicus) (UniProt O35811+Q9EPX4+P49651+Q63371+P41232+O35881+Q6GUG4); assay: Inhibition of Purinergic P2Y at compound concentration of 10.0 uM in the Eurofins-Panlabs radioligand binding assay (Eurofins_assay_268820); assay type: protein assay; design: ligand concentration 0.1 nM; conditions: Compound concentration 10.0 uM
[19] = molecular target: Tyrosine-protein kinase Fer (Homo sapiens) (UniProt P16591); assay: Fer(h) Millipore kinase panel; conditions: Compound concentration 1.0 uM
[20] = molecular target: 5-hydroxytryptamine receptor 2C (Homo sapiens) (UniProt P28335); conditions: Compound concentration 10.0 uM
[21] = molecular target: High affinity nerve growth factor receptor (Homo sapiens) (UniProt P04629); assay: TrkA(h) Millipore kinase panel; conditions: Compound concentration 1.0 uM
[22] = molecular target: Serine/threonine-protein kinase MARK2 (Homo sapiens) (UniProt Q7KZI7); assay: PAR-1Balpha(h) Millipore kinase panel; conditions: Compound concentration 1.0 uM
[23] = molecular target: Serine/threonine-protein kinase D1 (Homo sapiens) (UniProt Q15139); assay: PKCmu(h) Millipore kinase panel; conditions: Compound concentration 1.0 uM
[24] = molecular target: Tyrosine-protein kinase CSK (Homo sapiens) (UniProt P41240); assay: CSK(h) Millipore kinase panel; conditions: Compound concentration 1.0 uM
[25] = molecular target: Insulin receptor (Homo sapiens) (UniProt P06213); assay: IR(h) Millipore kinase panel; conditions: Compound concentration 1.0 uM
[26] = molecular target: Phosphatidylinositol 4-phosphate 3-kinase C2 domain-containing subunit alpha (Homo sapiens) (UniProt O00443); assay: PI3KC2a(h) Millipore kinase panel; conditions: Compound concentration 1.0 uM
[27] = molecular target: Rho-associated protein kinase 2 (Homo sapiens) (UniProt O75116); assay: ROCK-II(h) Millipore kinase panel; conditions: Compound concentration 1.0 uM
D(1A) dopamine receptor = D(1A) dopamine receptor (Homo sapiens, UniProt P21728); conditions: Compound concentration 10.0 uM
[28] = molecular target: Serine/threonine-protein kinase NIM1 (Homo sapiens) (UniProt Q8IY84); assay: NIM1(h) Millipore kinase panel; conditions: Compound concentration 1.0 uM
Sequence of Serine/threonine-protein kinase NIM1 (Homo sapiens) (Q8IY84 whole entry): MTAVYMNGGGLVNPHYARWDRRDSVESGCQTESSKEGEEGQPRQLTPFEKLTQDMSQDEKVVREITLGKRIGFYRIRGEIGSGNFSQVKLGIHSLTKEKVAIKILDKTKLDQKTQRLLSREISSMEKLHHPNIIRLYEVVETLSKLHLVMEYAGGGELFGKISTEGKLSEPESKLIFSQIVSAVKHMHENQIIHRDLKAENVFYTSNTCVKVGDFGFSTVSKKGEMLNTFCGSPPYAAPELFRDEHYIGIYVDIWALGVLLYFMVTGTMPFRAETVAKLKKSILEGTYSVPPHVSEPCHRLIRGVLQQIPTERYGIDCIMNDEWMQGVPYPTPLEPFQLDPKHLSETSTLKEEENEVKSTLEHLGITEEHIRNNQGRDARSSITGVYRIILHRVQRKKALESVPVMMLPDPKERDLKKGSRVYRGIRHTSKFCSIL

[29] = molecular target: Serine/threonine-protein kinase VRK2 (Homo sapiens) (UniProt Q86Y07); assay: VRK2(h) Millipore kinase panel; conditions: Compound concentration 1.0 uM
[30] = molecular target: Myotonin-protein kinase (Homo sapiens) (UniProt Q09013); assay: DMPK(h) Millipore kinase panel; conditions: Compound concentration 1.0 uM
[31] = molecular target: Receptor tyrosine-protein kinase erbB-2 (Homo sapiens) (UniProt P04626); assay: ErbB2(h) Millipore kinase panel; conditions: Compound concentration 1.0 uM
Sequence of Receptor tyrosine-protein kinase erbB-2 (Homo sapiens) (P04626 whole entry): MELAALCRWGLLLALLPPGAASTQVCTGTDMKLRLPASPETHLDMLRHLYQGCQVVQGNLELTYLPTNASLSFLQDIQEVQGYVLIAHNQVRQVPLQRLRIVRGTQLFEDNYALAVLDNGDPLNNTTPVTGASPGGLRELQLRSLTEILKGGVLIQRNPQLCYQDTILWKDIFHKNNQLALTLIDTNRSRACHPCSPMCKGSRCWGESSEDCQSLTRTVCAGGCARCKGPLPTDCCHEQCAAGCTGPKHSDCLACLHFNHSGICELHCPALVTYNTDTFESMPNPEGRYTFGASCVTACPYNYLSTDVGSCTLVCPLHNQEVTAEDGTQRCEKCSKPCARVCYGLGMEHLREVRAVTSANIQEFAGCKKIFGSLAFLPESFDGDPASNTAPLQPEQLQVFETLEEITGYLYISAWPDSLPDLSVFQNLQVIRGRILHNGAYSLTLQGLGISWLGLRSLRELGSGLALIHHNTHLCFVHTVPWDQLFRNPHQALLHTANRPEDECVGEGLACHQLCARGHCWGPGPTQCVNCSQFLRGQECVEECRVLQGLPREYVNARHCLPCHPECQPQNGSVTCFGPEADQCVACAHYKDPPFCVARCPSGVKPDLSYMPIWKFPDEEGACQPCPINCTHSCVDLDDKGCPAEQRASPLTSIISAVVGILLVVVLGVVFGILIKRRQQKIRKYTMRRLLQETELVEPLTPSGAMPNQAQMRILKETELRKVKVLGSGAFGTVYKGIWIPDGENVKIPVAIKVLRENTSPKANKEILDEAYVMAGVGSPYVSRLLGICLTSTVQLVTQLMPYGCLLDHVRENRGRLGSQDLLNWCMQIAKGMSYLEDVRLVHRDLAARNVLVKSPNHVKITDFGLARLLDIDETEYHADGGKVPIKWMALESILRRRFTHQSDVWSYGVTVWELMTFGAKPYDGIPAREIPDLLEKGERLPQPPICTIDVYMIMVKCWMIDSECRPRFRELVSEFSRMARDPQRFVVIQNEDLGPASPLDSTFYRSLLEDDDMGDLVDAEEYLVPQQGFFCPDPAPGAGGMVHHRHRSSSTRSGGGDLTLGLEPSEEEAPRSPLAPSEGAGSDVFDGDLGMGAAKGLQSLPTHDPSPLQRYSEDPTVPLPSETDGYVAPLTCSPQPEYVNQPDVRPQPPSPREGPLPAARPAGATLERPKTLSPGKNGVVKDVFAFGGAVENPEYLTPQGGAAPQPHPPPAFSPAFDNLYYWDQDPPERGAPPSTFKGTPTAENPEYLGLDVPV

[32] = molecular target: Cyclin-dependent kinase 5/CDK5 activator 1 (Homo sapiens) (UniProt Q00535+Q15078); assay: CDK5/p25(h) Millipore kinase panel; assay type: protein-complex assay; conditions: Compound concentration 1.0 uM
[33] = molecular target: Fibroblast growth factor receptor 1 (Homo sapiens) (UniProt P11362); assay: FGFR1(h) Millipore kinase panel; conditions: Compound concentration 1.0 uM
[34] = molecular target: Vascular endothelial growth factor receptor 3 (Homo sapiens) (UniProt P35916); assay: Flt4(h) Millipore kinase panel; conditions: Compound concentration 1.0 uM
[35] = molecular target: Activin receptor type-1-like (Homo sapiens) (UniProt P37023); assay: ALK1(h) Millipore kinase panel; conditions: Compound concentration 1.0 uM
[36] = molecular target: Testis-specific serine/threonine-protein kinase 3 (Homo sapiens) (UniProt Q96PN8); assay: TSSK3(h) Millipore kinase panel; conditions: Compound concentration 1.0 uM
[37] = molecular target: Serine/threonine-protein kinase ULK2 (Homo sapiens) (UniProt Q8IYT8); assay: ULK2(h) Millipore kinase panel; conditions: Compound concentration 1.0 uM

Measured: inhibition

Sequence of D(1B) dopamine receptor (Homo sapiens) (P21918 whole entry): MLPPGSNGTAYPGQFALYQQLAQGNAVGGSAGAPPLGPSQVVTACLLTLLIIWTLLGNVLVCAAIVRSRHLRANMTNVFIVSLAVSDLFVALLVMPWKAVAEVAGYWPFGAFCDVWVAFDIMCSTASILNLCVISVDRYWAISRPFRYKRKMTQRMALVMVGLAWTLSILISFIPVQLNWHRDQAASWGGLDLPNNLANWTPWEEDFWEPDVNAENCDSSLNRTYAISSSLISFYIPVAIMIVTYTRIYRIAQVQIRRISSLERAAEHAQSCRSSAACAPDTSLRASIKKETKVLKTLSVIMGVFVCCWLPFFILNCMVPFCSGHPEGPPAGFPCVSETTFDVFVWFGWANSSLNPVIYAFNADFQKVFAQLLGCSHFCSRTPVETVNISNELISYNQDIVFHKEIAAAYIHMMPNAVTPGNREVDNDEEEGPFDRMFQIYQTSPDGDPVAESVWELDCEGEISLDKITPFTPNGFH

CC[C@@H](Nc1c(C#N)c(-c2ccc(-c3cccc(C)c3F)cc2)nc2cnccc12)C(=O)O [BAY-091]
inactive: [1] 15.8% | [2] 10.3% | [3] 24% | [4] 22.3% | [5] 7.66% | [6] 13% | [7] 2.75% | [8] 3.07% | [9] 19.7% | [10] -4.39% | [11] 4.64% | [12] 4.68% | [13] 50.1% | [14] 27% | [15] 5.5% | [16] 13.8% | [17] 7.48% | [18] 31% | [19] 5.23% | [20] -9.38% | [21] 5.32% | [22] 6.75% | [23] 12.7% | [24] 6.94% | [25] -2.92% | [26] 4.18% | [27] -0.6% | D(1A) dopamine receptor -3.98% | [28] 12% | [29] 4.1% | [30] 15.1% | [31] 8.53% | [32] 6.65% | [33] 6.44% | [34] 12.9% | [35] -6.17% | [36] 8.88% | [37] 5.46%

Source: ChEMBL document CHEMBL4800729 (2021)
